Earlier results in publication PMC5526139 (Xenobiotica; the Fate of Foreign Compounds in Biological …, 2016).

Set-up: method as in Zhang et al., 2011
Conditions: ref Zhang et al., 2011

CC(O)Cn1c(=O)c(Oc2ccc(F)cc2F)cc2cnc(NC(C)CO)nc21 (centres unmarked) [6-(2,4-difluorophenoxy)-2-[(1-hydroxypropan-2-yl)amino]-8-(2-hydroxypropyl)-7H,8H-pyrido[2,3-d]pyrimidin-7-one]
half-life in Phase 1 clinical trial (man): 0.7 h | predicted half-life in man (prediction before the clinical trial): 6 h
